Experimental data: patent US5514694A, “Peptidyl ketoamides” (Georgia Tech Research Corp, priority 1993, dated 1996)
pKi: −log10 of the molar value. Like-named read-outs stand apart in the source and are kept apart here.

How the values were obtained:
Assay type in all cases: biochemical
[1] = biological target: T1, Calpain I from human erythrocytes (Homo sapiens, UniProt P07384); experiment: Calpain I inhibition, Suc-Leu-Tyr-AMC hydrolysis (KI); conditions: read-out: KI Cal I
T1 construct: Calpain I was purified from human erythrocytes; from tissue; host or cells: human erythrocytes
T1 sequence (P07384 1-714): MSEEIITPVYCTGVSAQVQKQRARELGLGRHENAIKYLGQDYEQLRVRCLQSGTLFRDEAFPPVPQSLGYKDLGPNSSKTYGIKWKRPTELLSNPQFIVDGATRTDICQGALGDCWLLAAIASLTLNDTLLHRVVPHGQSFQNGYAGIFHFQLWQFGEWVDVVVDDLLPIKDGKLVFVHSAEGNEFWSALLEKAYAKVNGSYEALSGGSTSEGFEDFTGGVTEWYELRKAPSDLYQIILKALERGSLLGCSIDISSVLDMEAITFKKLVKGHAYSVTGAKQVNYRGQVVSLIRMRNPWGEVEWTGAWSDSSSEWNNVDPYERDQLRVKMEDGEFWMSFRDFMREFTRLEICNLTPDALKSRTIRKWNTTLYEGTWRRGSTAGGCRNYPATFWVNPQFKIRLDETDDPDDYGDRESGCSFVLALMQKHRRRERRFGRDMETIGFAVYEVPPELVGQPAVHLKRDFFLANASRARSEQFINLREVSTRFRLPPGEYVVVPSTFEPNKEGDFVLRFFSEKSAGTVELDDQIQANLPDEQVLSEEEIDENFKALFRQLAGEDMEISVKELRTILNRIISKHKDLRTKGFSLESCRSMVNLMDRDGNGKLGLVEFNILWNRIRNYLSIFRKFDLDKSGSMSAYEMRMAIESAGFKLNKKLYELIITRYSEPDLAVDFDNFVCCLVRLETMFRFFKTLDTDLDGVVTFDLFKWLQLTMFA
T1 sequence (P04632 1-268 partner): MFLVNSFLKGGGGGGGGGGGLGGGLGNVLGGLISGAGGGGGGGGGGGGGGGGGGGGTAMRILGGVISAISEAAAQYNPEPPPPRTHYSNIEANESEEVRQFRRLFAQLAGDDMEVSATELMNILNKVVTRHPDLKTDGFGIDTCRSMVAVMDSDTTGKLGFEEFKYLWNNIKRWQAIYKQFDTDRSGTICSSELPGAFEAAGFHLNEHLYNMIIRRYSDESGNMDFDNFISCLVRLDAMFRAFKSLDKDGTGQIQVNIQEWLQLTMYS
Experimental: (§1) HEPES, heparin, and A23187 were obtained from Calbiochem. Suc-Leu-Tyr-AMC and chromogenic substrates were obtained from Sigma. Calpain I was purified from human erythrocytes according to the method of Kitahara (Kitahara et al., J. Biochem. 95, 1759-1766) omitting the Blue-Sepharose step. Calpain II from rabbit muscle and cathepsin B were purchased from Sigma. Papain was purchased from Calbiochem.
(§2) Peptide α-ketoamides were assayed as reversible enzyme inhibitors. Various concentrations of inhibitors in Me2 SO were added to the assay mixture which contained buffer and substrate. The reaction was started by the addition of the enzyme and the hydrolysis rates were followed spectrophotometrically or fluorimetrically.
(§3) Calpain I from human erythrocytes and calpain II from rabbit were assayed using Suc-Leu-Tyr-AMC Sasaki et al., J. Biol. Chem. 259, 12489-12494 (1984); incorporated herein by reference!, and the AMC (7-amino-4-methylcoumarin) release was followed fluorimetrically (excitation at 380 nm, and emmision at 460 nm). Calpains were assayed in 25 mM Tris pH=8.0, 10 mM CaC12. Fluorescence was followed using a Gilson FL-1A fluorometer or a Perkin-Elmer 203 Fluorescence spectrometer. Cathepsin B was assayed in 20 mM sodium acetate pH=5.2, 0.5 mM dithiothreitol using Bz-Phe-Val-Arg-p-nitroanilide as substrate. Alternately, cathepsin B was assayed with Z-Arg-Arg-AFC Barrett and Kirschke, Methods Enzymol. 80, 535-561 (1981); incorporated herein by reference!, and the AFC (7-amino-4-trifluoromethylcoumarin) release was followed fluorimetrically (excitation at 400 nm and emmision at 505 nm). Papain was assayed in 100 mM KPO4, 1 mM EDTA, 2.5 mM cysteine pH=6.0 using Bz-Arg-AMC or Bz-Arg-NA Kanaoka et al., Chem. Pharm. Bull. 25, 3126-3128 (1977); incorporated herein by reference! as a substrate. The AMC (7-amino-4-methylcoumarin) release was followed fluorimetrically (excitation at 380 nm, and emmision at 460 nm). Enzymatic hydrolysis rates were measured at various substrate and inhibitor concentrations, and KI values were determined by either Lineweaver-Burk plots or Dixon plots.
(§4) A 0.1M Hepes, 0.5M NaCl, pH 7.5 buffer was utilized for human leukocyte elastase (HLE), porcine pancreatic elastase (PPE), chymotrypsin and cathepsin G. A 0.1 Hepes, 0.01 M CaCl2, pH 7.5 buffer was utilized for trypsin, plasmin, and coagulation enzymes. A 50 mM Tris.HCl, 2 mM EDTA, 5 mM cysteine, pH 7.5 was used as a buffer for papain. A 88 mM KH2 PO4, 12 mM Na2 HPO4, 1.33 mM EDTA, 2.7 mM cysteine, pH 6.0 solution was used as a buffer for cathepsin B. A 20 mM Hepes, 10 mM CaCl2, 10 mM mercatoethanol, pH 7.2 buffer was utilized for calpain I and calpain II.

calpain II from rabbit = experiment: Calpain II inhibition, Suc-Leu-Tyr-AMC hydrolysis (KI); conditions: for pKi: read-out: KI Cal II
Experimental: as §1, §2, §3, §4

cathepsin B = biological target: T2, cathepsin B (Homo sapiens, UniProt P07858); experiment: Cathepsin B inhibition (KI); conditions: read-out: KI Cat B
T2 construct: purchased Sigma
Experimental: as §1, §2, §3, §4

[2] = Table 2, Z-Leu--AA--CONH--CH2 CH(OH)-R

Compound | pKi ([1]; Table 1, Z-Leu--AA--CONHR) | pKi (calpain II from rabbit; Table 1, Z-Leu--AA--CONHR) | pKi (cathepsin B; Table 1, Z-Leu--AA--CONHR) | further results
CC(C)CC(NC(=O)C(c1ccccc1)c1ccccc1)C(=O)NC(Cc1ccccc1)C(=O)C(=O)NCc1ccccn1 (stereo not drawn) [Ph2 CH-CO-Leu-Phe-CONH-CH2 -2-pyridyl, Ph2 CHCO-Leu-Phe-CONH--CH2 -2-Pyridyl] |  |  |  | pKi ([1]; Table 3, M1 CO-Leu--AA--CONH-R): 5.96; pKi (calpain II from rabbit; Table 3, M1 CO-Leu--AA--CONH-R): 6.44; pKi (cathepsin B; Table 3, M1 CO-Leu--AA--CONH-R): 5.66
CC(C)CC(NC(=O)C(c1ccccc1)c1ccccc1)C(=O)NC(Cc1ccccc1)C(=O)C(=O)NCCCN1CCOCC1 (stereo not drawn) [Ph2 CHCO-Leu-Phe-CONH--(CH2)3 -4-Morpholinyl] |  |  |  | pKi ([1]; Table 3, M1 CO-Leu--AA--CONH-R): 6.12; pKi (calpain II from rabbit; Table 3, M1 CO-Leu--AA--CONH-R): 7.13; pKi (cathepsin B; Table 3, M1 CO-Leu--AA--CONH-R): 5.42
CC[C@H](NC(=O)[C@H](CC(C)C)NC(=O)OCc1ccccc1)C(=O)C(=O)NCCCCCO [Z-Leu-Abu-CONH-(CH2)5 OH, Z-Leu-Abu-CONH--(CH2)5 OH] |  | 7.29 | 6.55 | 
CCC(NC(=O)[C@H](CC(C)C)NC(=O)OCc1ccccc1)C(=O)C(=O)NCCc1cccn1C (stereo partly drawn) [Z-Leu-Abu-CONH--(CH2)2-2-(N-Methylpyrrole)] |  | 7.12 | 5.92 | 
CCC(NC(=O)C(CC(C)C)NC(=O)OCc1ccccc1)C(=O)C(=O)NCCc1ccc(OC)cc1 (stereo not drawn) [Z-Leu-Abu-CONH-(CH2)2 C6 H4 (4-OCH3), Z-Leu-Abu-CONH--(CH2)2 C6 H4 (4-OCH3)] | 6.92 | 7.34 | 6.36 | 
CC(C)CC(NC(=O)OCc1ccccc1)C(=O)NC(Cc1ccccc1)C(=O)C(=O)NCc1ccccn1 (stereo not drawn) [Z-Leu-Phe-CONH-CH2 -2-pyridyl, Z-Leu-Phe-CONH--CH2 -2-Pyridyl] |  | 6.19 | 6.57 | 
CCC(NC(=O)C(CC(C)C)NC(=O)C(c1ccccc1)c1ccccc1)C(=O)C(=O)NCCCN1CCOCC1 (stereo not drawn) [Ph2 CHCO-Leu-Abu-CONH--N--(CH2)3 -Morpholinyl] |  |  |  | pKi ([1]; Table 3, M1 CO-Leu--AA--CONH-R): 6.10; pKi (calpain II from rabbit; Table 3, M1 CO-Leu--AA--CONH-R): 6.96; pKi (cathepsin B; Table 3, M1 CO-Leu--AA--CONH-R): 5.64
CCC(NC(=O)C(CC(C)C)NC(=O)OCc1ccccc1)C(=O)C(=O)NCc1ccncc1 (stereo not drawn) [Z-Leu-Abu-CONH-CH2 -4-pyridyl, Z-Leu-Abu-CONH--CH2 -4-Pyridyl] | 5.96 | 6.96 | 5.19 | inhibition of calpain II, in words (calpain II from rabbit): substantially poorer inhibitors
CCC(NC(=O)C(CC(C)C)NC(=O)OCc1ccccc1)C(=O)C(=O)NCC1(C)CC(O)CC(C)(C)C1 (stereo not drawn) [Z-Leu-Abu-CONH--CH2 --C6 H8 (1,3,3-(CH3)3 -5-OH)] | 6.38 | 7.16 | 6.05 | 
CCCC(NC(=O)C(CC(C)C)NC(=O)OCc1ccccc1)C(=O)C(=O)NCCCN1CCOCC1 (stereo not drawn) [Z-Leu-Nva-CONH-(CH2)3 -4-morpholinyl, Z-Leu-Nva-CONH--(CH2)3 -4-Morpholinyl] | 6.60 | 7.00 | 5.38 | 
CCC(NC(=O)C(CC(C)C)NC(=O)OCc1ccccc1)C(=O)C(=O)NCc1nccc2ccccc12 (stereo not drawn) [Z-Leu-Abu-CONH-CH2 -1-isoquinolinyl, Z-Leu-Abu-CONH--CH2 -1-Isoquinolinyl] | 6.60 |  | 6.52 | 
CCC(NC(=O)C(CC(C)C)NC(=O)OCc1ccccc1)C(=O)C(=O)NCC1CCCO1 (stereo not drawn) [Z-Leu-Abu-CONH-CH2 -2-tetrahydrofuryl, Z-Leu-Abu-CONH--CH2 -2-Tetrahydrofuryl] | 6.48 | 7.18 | 5.35 | 
CCC(NC(=O)C(CC(C)C)NC(=O)OCc1ccccc1)C(=O)C(=O)NCC(O)c1ccccc1 (stereo not drawn) [Z-Leu-Abu-CONH-CH2 CH(OH)-Ph, Z-Leu-Abu-CONH--CH2 CH(OH)Ph] |  |  |  | pKi [1, 2]: 5.96; inhibition of calpain II, in words (calpain II from rabbit): best inhibitor for calpain II; pKi (calpain II from rabbit; [2]): 7.82; pKi (cathepsin B; [2]): 6.43

Continued by rising pKi (cathepsin B; Table 1, Z-Leu--AA--CONHR), values first:

pKi ([1]; Table 1, Z-Leu--AA--CONHR) | pKi (calpain II from rabbit; Table 1, Z-Leu--AA--CONHR) | pKi (cathepsin B; Table 1, Z-Leu--AA--CONHR) | Compound | further results
6.54 | 7.17 | 5.00 | CCC(NC(=O)C(CC(C)C)NC(=O)OCc1ccccc1)C(=O)C(=O)NCCCn1ccnc1 (stereo not drawn) [Z-Leu-Abu-CONH-(CH2)3 -1-imidazolyl, Z-Leu-Abu-CONH--(CH2)3 -1-Imidazolyl] | 
6.10 |  | 5.35 | CCC(NC(=O)C(CC(C)C)NC(=O)OCc1ccccc1)C(=O)C(=O)NCCO (stereo not drawn) [Z-Leu-Abu-CONH-(CH2)2 OH, Z-Leu-Abu-CONH--(CH2)2 OH] | 
6.19 | 7.77 | 5.52 | CCC(NC(=O)C(CC(C)C)NC(=O)OCc1ccccc1)C(=O)C(=O)NCc1ccccn1 (stereo not drawn) [Z-Leu-Abu-CONH-CH2 -2-pyridyl, Z-Leu-Abu-CONH--CH2 -2-Pyridyl] | inhibition of calpain II, in words (calpain II from rabbit): best inhibitor of calpain II
6.00 |  | 5.60 | CCC(NC(=O)[C@H](CC(C)C)NC(=O)OCc1ccccc1)C(=O)C(=O)NCCN1CCOCC1 (stereo partly drawn) [Z-Leu-Abu-CONH-(CH2)2 -4-morpholinyl, Z-Leu-Abu-CONH--(CH2)2 -4-Morpholinyl] | 
5.92 | 6.57 | 5.70 | CCC(NC(=O)C(CC(C)C)NC(=O)OCc1ccccc1)C(=O)C(=O)NCCCN1CCCC1=O (stereo not drawn) [Z-Leu-Abu-CONH--(CH2)3 -1-Pyrrolidinyl-2-one] | 
5.64 | 7.66 | 5.74 | CC[C@H](NC(=O)[C@H](CC(C)C)NC(=O)OCc1ccccc1)C(=O)C(=O)NCc1cc(OC)cc(OC)c1 [Z-Leu-Abu-CONH-CH2 C6 H3 (3,5-(OCH3)2), Z-Leu-Abu-CONH--CH2 C6 H3 (3,5-(OCH3)2] | 
 | 6.92 | 5.92 | CCC(NC(=O)C(CC(C)C)NC(=O)OCc1ccccc1)C(=O)C(=O)NCc1cccnc1 (stereo not drawn) [Z-Leu-Abu-CONH-CH2 -3-pyridyl, Z-Leu-Abu-CONH--CH2 -3-Pyridyl] | inhibition of calpain II, in words (calpain II from rabbit): substantially poorer inhibitors
6.96 | 7.64 | 6.47 | CC(C)CC(NC(=O)OCc1ccccc1)C(=O)NC(Cc1ccccc1)C(=O)C(=O)NCc1ccc2ccccc2n1 (stereo not drawn) [Z-Leu-Phe-CONH-CH2 -2-quinolinyl, Z-Leu-Phe-CONH--CH2 -2-Quinolinyl] | 
6.96 | 7.07 | 6.51 | Z-Leu-Abu-CONH--(CH2)2 C6 H4 (3-OCH3) [Z-Leu-Abu-CONH-(CH2)2 C6 H4 (3-OCH3)] | 
